Results as given in patent US9073853B2, “Cycloalkane carboxylic acid derivatives as CXCR3 receptor antagonists” (Sanofi, priority 2011, dated 2015).

What follows are molecules tested against human CXCR3-A receptor (Homo sapiens (Human), UniProt P49682) (assay: 125I-CXCL10 competition radioligand binding assay). Conditions: displacement of 125I-CXCL10 from membranes of CHO cells expressing human recombinant CXCR3-A.
Protocol: IC50 values were determined for the test compounds and used to explore the structure-activity relationships (SAR). […] This cell line was registered in Sanofi-Aventis cell line bank. […] Cell suspension was diluted with PBS and cells were collected with centrifugation at 230 g for 10 minutes at 10° C. with a Juan centrifuge. […] The supernatant was carefully collected and centrifuged at 100,000×g for 60 min at 4° with a Beckman Avanti J30 centrifuge. […] Protein concentration was determined with Bio-Rad protein assay (Cat No 500-0006). Membrane aliquots were stored at -80° C. […] The composition of the binding assay buffer was determined in a course of detailed optimization procedure. […] Binding reaction was initiated by adding of membranes (10-20 μg proteins, approximately 5×10^5 cell equivalents) to the reaction mixture. After 60 minutes of incubation at 25° C. the reaction was terminated by rapid filtration over GF/B glass fiber filters that were pre-soaked with 0.5% polyethyleneimine (Fluka Analytical, P3143) for 1 hour, using a Skatron cell harvester device. Filters then were washed with 8 ml of ice-cold wash buffer (modified binding buffer in which BSA was omitted and the concentration of NaCl was adjusted to 500 mM concentration). The radioactivity retained on the filters was measured by a Wizard 1470 Automatic Gamma counter. Test compounds were dissolved prior to the binding assay at a concentration of 10 mM in DMSO. Stock solutions were stored at -20° C. for not longer than 3 months. […] Before adding these solutions of test compound to the binding reaction mixture, an intermediate dilution procedure was applied, in which 30 μL of each solution sample was transferred into a dilution tube containing 970 μL of binding assay buffer. […] The IC50 values and Hill slopes for competition binding data were obtained using nonlinear four-parametric curve fitting method.

human CXCR3-A receptor, sequence (P49682 whole entry): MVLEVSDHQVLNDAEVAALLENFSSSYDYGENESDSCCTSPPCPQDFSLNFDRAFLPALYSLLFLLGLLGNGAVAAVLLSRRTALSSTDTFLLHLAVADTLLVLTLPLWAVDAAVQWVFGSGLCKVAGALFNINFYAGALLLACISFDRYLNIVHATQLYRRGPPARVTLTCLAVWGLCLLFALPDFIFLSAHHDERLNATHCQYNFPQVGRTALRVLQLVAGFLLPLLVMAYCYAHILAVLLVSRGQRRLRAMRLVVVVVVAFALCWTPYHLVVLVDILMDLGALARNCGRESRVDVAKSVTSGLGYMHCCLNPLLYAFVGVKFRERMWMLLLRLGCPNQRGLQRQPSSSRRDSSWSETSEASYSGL

| Structure (SMILES) | IC50 |
| --- | --- |
| CC(c1ccc2c(c1)CCO2)N(Cc1ccc(OCCN2C(=O)CN(C)C2=O)c(Cl)c1)C[C@H]1CC[C@H](C(=O)O)CC1 (stereo partly drawn) [Example 22, trans-4-({{3-Chloro-4-[2-(3-methyl-2,5-dioxo-imidazolidin-1-yl)-ethoxy]-benzyl}-[1-(2,3-dihydro-benzofuran-5-yl)-ethyl]-amino}-methyl)-cyclohexanecarboxylic acid] | 112 nM |
| C[C@@H](c1ccc(Cl)cc1)N(Cc1ccc(OCCN2C(=O)CN(C)C2=O)c(Cl)c1)C[C@H]1CC[C@H](C(=O)O)CC1 [Example 23, trans-4-({{3-Chloro-4-[2-(3-methyl-2,5-dioxo-imidazolidin-1-yl)-ethoxy]-benzyl}-[(S)-1-(4-chloro-phenyl)-ethyl]-amino}-methyl)-cyclohexanecarboxylic acid] | 116 nM |
| COc1cc(CN(C[C@H]2CC[C@H](C(=O)O)CC2)C2CCc3cc(Cl)ccc32)ccc1OCCN1C(=O)CSC1=O (stereo partly drawn) [Example 24, trans-4-[((5-Chloro-indan-1-yl)-{4-[2-(2,4-dioxo-thiazolidin-3-yl)-ethoxy]-3-methoxy-benzyl}-amino)-methyl]-cyclohexanecarboxylic acid] | 58 nM |
| COc1cc(CN(C[C@H]2CC[C@H](C(=O)O)CC2)C(C)c2ccc(Cl)c(C)c2)ccc1OCCN1C(=O)CCC1=O (stereo partly drawn) [Example 25, trans-4-[([1-(4-Chloro-3-methyl-phenyl)-ethyl]-{4-[2-(2,5-dioxo-pyrrolidin-1-yl)-ethoxy]-3-methoxy-benzyl}-amino)-methyl]-cyclohexanecarboxylic acid] | 25 nM |
| COc1cc(CN(C[C@H]2CC[C@H](C(=O)O)CC2)[C@@H](C)c2ccc(Cl)c(C)c2)ccc1OCCN1C(=O)CCC1=O [Example 26, trans-4-[([(S)-1-(4-Chloro-3-methyl-phenyl)-ethyl]-{4-[2-(2,5-dioxo-pyrrolidin-1-yl)-ethoxy]-3-methoxy-benzyl}-amino)-methyl]-cyclohexanecarboxylic acid] | 64 nM |
| COc1cc(CN(C[C@H]2CC[C@H](C(=O)O)CC2)[C@H](C)c2ccc(Cl)c(C)c2)ccc1OCCN1C(=O)CCC1=O [Example 27, trans-4-[([(R)-1-(4-Chloro-3-methyl-phenyl)-ethyl]-{4-[2-(2,5-dioxo-pyrrolidin-1-yl)-ethoxy]-3-methoxy-benzyl}-amino)-methyl]-cyclohexanecarboxylic acid] | 80 nM |
| CCC(c1ccc2c(c1)CCO2)N(Cc1ccc(OCCN2C(=O)CN(C)C2=O)c(OC)c1)C[C@H]1CC[C@H](C(=O)O)CC1 (stereo partly drawn) [Example 28, trans-4-[([1-(2,3-Dihydro-benzofuran-5-yl)-propyl]-{3-methoxy-4-[2-(3-methyl-2,5-dioxo-imidazolidin-1-yl)-ethoxy]-benzyl}-amino)-methyl]-cyclohexanecarboxylic acid] | 81 nM |
| Cc1cc(CN(C[C@H]2CC[C@H](C(=O)O)CC2)C2CCc3cc(Cl)ccc32)ccc1OCCN1C(=O)CCC1=O (stereo partly drawn) [Example 29, trans-4-[((5-Chloro-indan-1-yl)-{4-[2-(2,5-dioxo-pyrrolidin-1-yl)-ethoxy]-3-methyl-benzyl}-amino)-methyl]-cyclohexanecarboxylic acid] | 150 nM |
| Cc1cc(CN(C[C@H]2CC[C@H](C(=O)O)CC2)[C@H]2CCc3cc(Cl)ccc32)ccc1OCCN1C(=O)CCC1=O [Example 30, trans-4-[(((S)-5-Chloro-indan-1-yl)-{4-[2-(2,5-dioxo-pyrrolidin-1-yl)-ethoxy]-3-methyl-benzyl}-amino)-methyl]-cyclohexanecarboxylic acid] | 53 nM |
| Cc1cc(CN(C[C@H]2CC[C@H](C(=O)O)CC2)[C@@H]2CCc3cc(Cl)ccc32)ccc1OCCN1C(=O)CCC1=O [Example 31, trans-4-[(((R)-5-Chloro-indan-1-yl)-{4-[2-(2,5-dioxo-pyrrolidin-1-yl)-ethoxy]-3-methyl-benzyl}-amino)-methyl]-cyclohexanecarboxylic acid] | 360 nM |
| C[C@@H](c1ccc(Cl)cc1)N(Cc1ccc(OCCN2C(=O)CCC2=O)c(Cl)c1)C[C@H]1CC[C@H](C(=O)O)CC1 [Example 32, trans-4-({{3-Chloro-4-[2-(2,5-dioxo-pyrrolidin-1-yl)-ethoxy]-benzyl}-[(S)-1-(4-chloro-phenyl)-ethyl]-amino}-methyl)-cyclohexanecarboxylic acid] | 123 nM |
| Cc1cc(CN(C[C@H]2CC[C@H](C(=O)O)CC2)C(C)c2ccc3c(c2)CCO3)ccc1OCCN1C(=O)CSC1=O (stereo partly drawn) [Example 33, trans-4-[([1-(2,3-Dihydro-benzofuran-5-yl)-ethyl]-{4-[2-(2,4-dioxo-thiazolidin-3-yl)-ethoxy]-3-methyl-benzyl}-amino)-methyl]-cyclohexanecarboxylic acid] | 42 nM |
| COc1cc(CN(C[C@H]2CC[C@H](C(=O)O)CC2)[C@@H](C)c2ccc(Cl)cc2)ccc1OCCN1C(=O)CSC1=O [Example 34, trans-4-[([(S)-1-(4-Chloro-phenyl)-ethyl]-{4-[2-(2,4-dioxo-thiazolidin-3-yl)-ethoxy]-3-methoxy-benzyl}-amino)-methyl]-cyclohexanecarboxylic acid] | 22 nM |
| COc1cc(CN(C[C@H]2CC[C@H](C(=O)O)CC2)C(C)c2ccc3c(c2)CCO3)ccc1/C=C/CN1C(=O)CCC1=O (stereo partly drawn) [Example 35, trans-4-[([1-(2,3-Dihydro-benzofuran-5-yl)-ethyl]-{4-[(E)-3-(2,5-dioxo-pyrrolidin-1-yl)-propenyl]-3-methoxy-benzyl}-amino)-methyl]-cyclohexanecarboxylic acid] | 1430 nM |
| COc1cc(CN(C[C@H]2CC[C@H](C(=O)O)CC2)[C@@H](C)c2ccc(Cl)cc2)ccc1OCCN1C(=O)COC1=O [Example 36, trans-4-[([(S)-1-(4-Chloro-phenyl)-ethyl]-{4-[2-(2,4-dioxo-oxazolidin-3-yl)-ethoxy]-3-methoxy-benzyl}-amino)-methyl]-cyclohexanecarboxylic acid] | 28 nM |
| COc1cc(CN(C[C@H]2CC[C@H](C(=O)O)CC2)[C@@H](C)c2ccc(Cl)cc2)ccc1OCCn1c(=O)ccn(C)c1=O [Example 37, trans-4-[([(S)-1-(4-Chloro-phenyl)-ethyl]-{3-methoxy-4-[2-(3-methyl-2,6-dioxo-3,6-dihydro-2H-pyrimidin-1-yl)-ethoxy]-benzyl}-amino)-methyl]-cyclohexanecarboxylic acid] | 76 nM |
| COc1cc(CN(C[C@H]2CC[C@H](C(=O)O)CC2)C(C)c2ccc3c(c2)CCO3)ccc1OCCN1C(=O)CCCC1=O (stereo partly drawn) [Example 38, trans-4-[([1-(2,3-Dihydro-benzofuran-5-yl)-ethyl]-{4-[2-(2,6-dioxo-piperidin-1-yl)-ethoxy]-3-methoxy-benzyl}-amino)-methyl]-cyclohexanecarboxylic acid] | 163 nM |
| Cc1cc(CN(C[C@H]2CC[C@H](C(=O)O)CC2)[C@@H](C)c2ccc(Cl)cc2)ccc1OCCN1C(=O)CN(C)C1=O [Example 39, trans-4-[([(S)-1-(4-Chloro-phenyl)-ethyl]-{3-methyl-4-[2-(3-methyl-2,5-dioxo-imidazolidin-1-yl)-ethoxy]-benzyl}-amino)-methyl]-cyclohexanecarboxylic acid] | 99 nM |
| COc1cc(CN(CC2CCCC(C(=O)O)C2)C(C)c2ccc3c(c2)CCO3)ccc1OCCN1C(=O)CCC1=O (centres unmarked) [Example 41, 3-[([1-(2,3-Dihydro-benzofuran-5-yl)-ethyl]-{4-[2-(2,5-dioxo-pyrrolidin-1-yl)-ethoxy]-3-methoxy-benzyl}-amino)-methyl]-cyclohexanecarboxylic acid] | 131 nM |
| COc1cc(CN(C[C@H]2CC[C@H](C(=O)O)CC2)C2CCc3cc(Cl)c(C)cc32)ccc1OCCN1C(=O)CCC1=O (stereo partly drawn) [Example 42, trans-4-[((5-Chloro-6-methyl-indan-1-yl)-{4-[2-(2,5-dioxo-pyrrolidin-1-yl)-ethoxy]-3-methoxy-benzyl}-amino)-methyl]-cyclohexanecarboxylic acid] | 87 nM |
| COc1cc(CN(C[C@H]2CC[C@H](C(=O)O)CC2)C2CCc3c2ccc(Cl)c3C)ccc1OCCN1C(=O)CCC1=O (stereo partly drawn) [Example 43, trans-4-[((5-Chloro-4-methyl-indan-1-yl)-{4-[2-(2,5-dioxo-pyrrolidin-1-yl)-ethoxy]-3-methoxy-benzyl}-amino)-methyl]-cyclohexanecarboxylic acid] | 68 nM |
| COc1cc(CN(C[C@H]2CC[C@H](C(=O)O)CC2)C2CCc3cc(Cl)ccc32)ccc1CCCN1C(=O)CCC1=O (stereo partly drawn) [Example 44, trans-4-[((5-Chloro-indan-1-yl)-{4-[3-(2,5-dioxo-pyrrolidin-1-yl)-propyl]-3-methoxy-benzyl}-amino)-methyl]-cyclohexanecarboxylic acid] | 410 nM |
| CC(c1ccc2c(c1)CCO2)N(Cc1ccc(CCCN2C(=O)CCC2=O)c(Cl)c1)C[C@H]1CC[C@H](C(=O)O)CC1 (stereo partly drawn) [Example 47, trans-4-({{3-Chloro-4-[3-(2,5-dioxo-pyrrolidin-1-yl)-propyl]-benzyl}-[1-(2,3-dihydro-benzofuran-5-yl)-ethyl]-amino}-methyl)-cyclohexanecarboxylic acid] | 800 nM |
